Experimental data as given in patent US20100203587A1, “USE OF DNA GYRASE INHIBITORS FOR IN VITRO POLYPEPTIDE SYNTHESIS REACTIONS” (priority 2009, published 2010).
Like-named read-outs stand apart in the source and are kept apart here.

Experiments:
bacterial strains = details: cited from earlier work; for minimum inhibitory concentration (According to literature): Klein et al.
[1] = tested on: bacterial growth from lysate; assay: Inhibition of bacterial growth from lysate in LB medium (Example 6); type: cell-based; details: 16 hours; for OD595 (cell density): 37° C.
[2] = tested on: GM-CSF yields in cell-free reactions; assay: Cell-free protein synthesis reaction, GM-CSF yields; type: biochemical, E. coli; details: for Concentration with very mild impact on GM-CSF yields in cell-free reactions: FIG. 3, 60 μL scale; for Concentration without impact in cell-free reactions: GM-CSF yields
Description: In vitro protein synthesis reactions occurred in lysates generated from a population of cells. The lysate must be generated such that it would be useful for expressing proteins. E. coli A19ΔendAΔtonAΔspeAΔtnaAΔsdaAΔsdaBΔgshAΔgorTrxBHAmet^+ was used for as the extract source cell strain.
E. coli cells were grown in a 10 L Braun Biostat C fermentor. The cells were grown on 2YPTG media in batch mode with pH control at pH 7.0. The cells were harvested at 3.2 OD (595) at growth rate of >0.7 per hour. Cells were separated from the media by centrifugation at 6000 g, 4° C. for 25 min and the resulting cell paste was stored at −80° C. The cell paste was thawed at 4° C. in S30 buffer (10 mM TRIS-acetate pH 8.2 (Sigma-Aldrich Corp. St. Louis, Mo.), 14 mM magnesium acetate (Sigma-Aldrich), and 60 mM potassium acetate (Sigma-Aldrich)) at a ratio of 1 mL of buffer per 1 g of wet cell paste. Resuspended cells were passed through a high pressure homogenizer (Emulsiflex C-50, Avestin Inc., Ottawa, Ontario, Canada). The pressure drop was set at 20000 psi. The homogenized mixture was then centrifuged at 30000 g, 4° C. for 30 minutes. The procedure was repeated twice and the supernatant was retained both times. The mixture was incubated at 37° C. for 80 min in a rotary shaker. The lysate was then centrifuged at 20000 g, 4° C. for 30 minutes and supernatant was retained.
The extract was pretreated with 50 μM iodoacetamide at 21° C. for 30 min. The plasmid contained the structural gene encoding the target protein and was constructed as explained above. Amino Acids were in an equimolar mixture of all 20 native amino acids.
The 250 μL of reaction mixture is spread on the bottom of a petri dish (BD Falcon) and incubated at 30° C. in a sealed humidified incubator for 5 hours. 300 mL reaction is performed in QPlus bioreactor, 4 L in 10 L Braun Biostat C fermentor and 100 L in 200 L fermentor (Sartorius).

Clostridium difficile = Clostridium difficile (Shungu et al.); cited from earlier work
[3] = tested on: bacterial growth in lysates used for cell-free reactions; assay: Inhibition of bacterial growth from lysate in LB medium (Example 5); type: cell-based; details: 20 hours; for OD595: 30° C.; for Concentration that inhibits growth: Example 5, 30° C.
Description: 20 μl of lysate was inoculated into 2 ml LB medium, which contained 0, 0.1, 0.25, 0.5, and 1 μg/mL of Norfloxacin or 0, 1, 2.5, 5, and 10 μg/ml Coumermycin A1 and was incubated at 30° C. by shaking at 300 rpm. OD595 was assayed after incubation for 20 hours.

[4] = tested on: hepatic nonprotein sulfhydryl groups (mainly reduced glutathione); details: in vivo and in vitro studies using rats (Lake et al.; Fernyhough et al.); cited from earlier work

## O=C(O)c1cn(C2CC2)c2cc(N3CCNCC3)c(F)cc2c1=O [Ciprofloxacin]
Bacterial strains
  minimum inhibitory concentration (According to literature): 1 (1) μg/ml
Bacterial strains; listed as ciprofloxacin
  minimum inhibitory concentration (According to literature): about 1 μg/ml
[1]; Example 6, 37° C.
  Concentration that inhibits growth: 1 µg/mL

## CCn1cc(C(=O)O)c(=O)c2cc(F)c(N3CCNCC3)cc21 [Norfloxacin]
[2]
  Concentration with very mild impact on GM-CSF yields in cell-free reactions: up to 2.5 μg/ml
  Concentration without impact in cell-free reactions: 2.5 µg/mL
Clostridium difficile
  inhibitory concentration (literature): 1 to 128 µg/mL
[3]; 0.1 μg/ml
  OD595: 1.8
[3]; 0.25 μg/ml
  OD595: 1.3
[3]; 0.5 μg/ml
  OD595: 1.2
[3]; 1 μg/ml
  OD595: 0.06
[3]
  Concentration that inhibits growth: 1 µg/mL
Bacterial strains; most gastrointestinal strains tested (Shungu et al.)
  Concentration that inhibits growth (According to literature): 0.008 to 1 µg/mL

## CO[C@@H]1[C@@H](OC(N)=O)[C@@H](O)[C@H](Oc2ccc3c(O)c(NC(=O)c4ccc(O)c(CC=C(C)C)c4)c(=O)oc3c2C)OC1(C)C [Novobiocin]
[2]; FIG. 5
  Concentration that negatively impacts GM-CSF yields in cell-free reactions: ≥ 10 µg/mL
Bacterial strains; different bacterial strains (Smith and Davis)
  Concentration that inhibits growth (According to literature): 100 to 300 µg/mL
[4]
  Effect on hepatic nonprotein sulfhydryl groups (mainly reduced glutathione): depletion of hepatic nonprotein sulfhydryl groups
[1]; 10 μg/ml
  OD595 (cell density): 0.003
[1]; 25 μg/ml
  OD595 (cell density): 0.17
[1]; 50 μg/ml
  OD595 (cell density): 0.08
[1]; 100 μg/ml
  OD595 (cell density): 0.1
[1]; 200 μg/ml
  OD595 (cell density): 0.13

## Coumermycin A1
[2]
  Concentration with very mild impact on GM-CSF yields in cell-free reactions: 10 µg/mL
  Concentration without impact in cell-free reactions: 10 µg/mL
[3]; 1 μg/ml
  OD595: 1.7
[3]; 2.5 μg/ml
  OD595: 1.2
[3]; 5 μg/ml
  OD595: 1.1
[3]; 10 μg/ml
  OD595: 0.2
[3]
  Concentration that inhibits growth: 10 µg/mL
Bacterial strains; some strains tested (Hooper et al.)
  Concentration that inhibits growth (According to literature): 2 to 8 µg/mL
